Experimental data published in patent publication US9801919B2, “Oral compositions containing enhanced antibacterial combinations of antioxidants and extracts of magnolia” (WM. WRIGLEY JR. COMPANY, priority 2008, dated 2017).

Legend:
[1] = test system: S. mutans; assay: MIC and FIC of MBE and common antioxidants against S. mutans (broth two-fold dilution); assay type: cell-based, Streptococcus mutans; details: sample alone, lowest concentration with no visible growth, aerobic 37° C., 1 to 2 days; for MIC: Streptococcus mutans
Experimental: (§1) To evaluate an enhanced effect of an active ingredient in combination of magnolia with antioxidant, the fractional inhibitory index (FIC) is computed according to equation (1): […]
The following tests were conducted on S. mutans.
BHA, gallic acid, octyl gallate and magnolia bark extract (MBE) sample were dissolved in ethanol to produce 1-10% working solution and was added to a nutrient broth and shaken well and was diluted two-fold in individual test tubes. A total of 0.2 milliliter (mL) of inoculated bacteria culture purchased from American Type Culture Collection (ATCC) was added to each test tube. The tubes were incubated aerobically at 37° C. for 1 to 2 days. […] FIC values were determined by equation 1.

[2] = test system: S. sobrinus; assay: MIC and FIC of MBE and common antioxidants against S. sobrinus (broth two-fold dilution); assay type: cell-based, Streptococcus sobrinus; details: sample alone, lowest concentration with no visible growth, aerobic 37° C., 1-2 days; for MIC: Streptococcus sobrinus
Experimental: as §1
S. Sobrinus, another common pathogen associated with dental plaque is also associated with dental caries.
BHA, BHT, gallic acid, octyl gallate and magnolia bark extract (MBE) samples were dissolved in ethanol to produce 1-10% working solution and was added to a nutrient broth and shaken well and was diluted two-fold in individual test tubes A total of 0.2 mL of inoculated bacteria culture purchased from ATCC was added to each test tube. The tubes were incubated aerobically at 37° C. for 1-2 days.

[3] = test system: S. mutans; details: active principles of Magnolia Cortex extracts; cited from earlier work

SMILES: COc1ccc(O)c(C(C)(C)C)c1 [BHA, butylated hydroxyanisole]
- MIC (ppm) [1]: 250 ppm
- MIC (ppm) [2]: 500 ppm

SMILES: Cc1cc(C(C)(C)C)c(O)c(C(C)(C)C)c1 [BHT, butylated hydroxytoluene]
- MIC [2]: > 2000 µg/mL

SMILES: O=C(O)c1cc(O)c(O)c(O)c1 [Gallic acid]
- MIC [1]: > 2000 µg/mL
- MIC [2]: > 2000 µg/mL

SMILES: CCCCCCCCOC(=O)c1cc(O)c(O)c(O)c1 [Octyl gallate]
- MIC [1]: 250 µg/mL
- MIC [2]: 250 µg/mL

SMILES: C=CCc1ccc(O)c(-c2ccc(O)c(CC=C)c2)c1 [honokiol]
- bactericidal against S. mutans in in vitro MIC test [3]: bactericidal

SMILES: C=CCc1ccc(O)c(-c2cc(CC=C)ccc2O)c1 [magnolol]
- bactericidal against S. mutans in in vitro MIC test [3]: bactericidal

SMILES: CCCc1ccc(O)c(-c2ccc(O)c(CCC)c2)c1 [tetrahydrohonokiol]
- bactericidal against S. mutans in in vitro MIC test [3]: bactericidal

SMILES: CCCc1ccc(O)c(-c2cc(CCC)ccc2O)c1 [tetrahydromagnolol]
- bactericidal against S. mutans in in vitro MIC test [3]: bactericidal
